Experimental data published in patent US11530181B2, “IL-6 inhibitors and methods of treatment” (University of Florida Research Foundation, Incorporated, priority 2018, dated 2022).

Columns and labels:
[1] = test system: Capan-1 pancreatic cancer cell line; test: MTT cell viability assay, Capan-1; type: cell-based; conditions: Homo sapiens
Procedure: (§1) Human breast cancer cell lines MCF7, MDA-MB-231 and SUM159 were maintained in Dulbecco's modified Eagle medium (DMEM). Human pancreatic cancer cell line BxPC-3 was maintained in RPMI 1640 medium. Human pancreatic cancer cell line Capan-1 was maintained in Iscove's Modified Dulbecco's Medium (IMEM). All media were supplemented with 10% FBS and 1% penicillin/streptomycin, and cells were incubated in a humidified 37° C. incubator with 5% CO2. PE/CA-PJ49 cell line was purchased from external sources and maintained according to manufacturer's protocol.
(§2) Cell viability was evaluated by using the MTT assay in triple replicates in one experiment and repeated for three times. Cancer cells were seeded in 96-well plates at a density of 3,000 cells per well. The cells were incubated at 37° C. for a period of 24 hours. Escalating concentrations of IL-6/gp130 inhibitors were added in triplicate to the plates in the presence of 10% FBS. After incubation for 48 or 72 hours, a stock solution of MTT (0.5 mg/ml) was then added to each well containing the treated cells, followed by incubation at 37° C. for 3 h. After removal of medium, the MTT dye was dissolved with spectrophotometric grade DMSO and the absorbance was read at 570 nm. The IC50 value is determined by interpolation based on the absorbance value halfway between positive and negative controls. […]

[2] = test system: MDA-MB-231 breast cancer cell line; test: MTT cell viability assay, MDA-MB-231; type: cell-based, human; conditions: Homo sapiens; MDA-MB-231 (medium IL-6), 48 h, 0% FBS medium
Procedure: as §1
as §2, with “Escalating concentrations of IL-6/gp130 inhibitors were added in triplicate to the plates in the presence of 10% FBS.” left out

[3] = test system: STAT3 phosphorylation in BxPC-3 cells; test: Western blot, STAT3 phosphorylation in BxPC-3 (IL-6 autocrine); type: cell-based, human
Procedure: (§3) Cells were harvested and lysed in cold radioimmunoprecipitation assay (RIPA) lysis buffer containing proteasome inhibitor cocktail and phosphatase inhibitor cocktail. The protein concentrations were determined using the BCA Protein Assay kit. After adding the loading buffer and boiling at 95° C. for 10 minutes, equivalent amounts of proteins were loaded on and separated by SDS-PAGE, and then were transferred to PVDF membranes. Membranes were probed with primary antibodies (1:1000) against phospho-STAT3 (Tyr705), STAT3, phospho-STAT1 (Tyr701), STAT1, phospho-STAT6 (Tyr 641), STAT6, and GAPDH, respectively, and horseradish peroxidase (HRP)-conjugated secondary antibody (1:10000) (Cell Signaling Technology, Beverly, Mass.). Membranes were analyzed using Enhanced Chemiluminescence Plus reagents and either scanned with the Storm Scanner (Amersham Pharmacia Biotech, Inc., Piscataway, N.J.) or imaged with ChemiDoc MP imaging system (Bio-Rad, Hercules, Calif.). For cytokine induction of STAT3 phosphorylation, MCF-7 breast cancer cells were seeded in 10 cm plates (1 million cells per plate) and allowed to adhere overnight followed by serum-starvation. […] The cells were harvested after 30 minutes and analyzed by Western blot.
BxPC-3 and SUM159 cells were seeded in 10 cm plates (1 million cells per plate) and allowed to adhere overnight. […] Then cells were harvested and analyzed by western blotting.

[4] = test system: CNTF induced STAT3 phosphorylation; test: Western blot, CNTF induced STAT3 phosphorylation in MCF7; type: cell-based, human; conditions: MCF7, 15 μM, 2, 3 and 4 hours
Procedure: as §3, with “Calif.).” for “Calif.). For cytokine induction of STAT3 phosphorylation, MCF-7 breast cancer cells were seeded in 10 cm plates (1 million cells per plate) and allowed to adhere overnight followed by serum-starvation.”
(§4) MCF7 breast cancer cells were seeded in 10 cm plates (1 million cells per plate) and allowed to adhere overnight. […] The cells were harvested after 30 minutes and analyzed by western blotting.

[5] = test system: CT-1 induced STAT3 phosphorylation; test: Western blot, CT-1 induced STAT3 phosphorylation in MCF7; type: cell-based, human; conditions: MCF7, 15 μM, time dependent
Procedure: as §3, with “Calif.).” for “Calif.). For cytokine induction of STAT3 phosphorylation, MCF-7 breast cancer cells were seeded in 10 cm plates (1 million cells per plate) and allowed to adhere overnight followed by serum-starvation.”
as §4

[6] = test system: SUM159 breast cancer cell line; test: MTT cell viability assay, SUM159; type: cell-based, human; conditions: Homo sapiens, SUM159, 48 h, SUM159 (high IL-6), 0% FBS medium
STAT4 phosphorylation = test: Western blot, STAT4 phosphorylation in MCF7; type: cell-based, human; conditions: MCF7, pre-treatment 2, 3 and 4 hours
Procedure: FIG. 13. depicts the reduced effect on STAT1, STAT2, STAT4 and STAT6 phosphorylation by LLM418. The MCF7 cells were serum-starved overnight, then treated with LLM4 (15 μM) for 2, 3 and 4 hours. STAT1, STAT2, STAT4 and STAT6 phosphorylation were induced by INF-γ, INF-α and IL-4, respectively. The cells were harvested at 30 minutes and analyzed by western blot assays.
as §3, with “Calif.).” for “Calif.). For cytokine induction of STAT3 phosphorylation, MCF-7 breast cancer cells were seeded in 10 cm plates (1 million cells per plate) and allowed to adhere overnight followed by serum-starvation.”

Row | IC50 [1] [nM] | IC50 [2] [nM] | IC50 [6] [nM] | SMILES | inhibition of STAT3 phosphorylation ([3]; BxPC-3, 20 μM) | inhibition of STAT3 phosphorylation ([3]; BxPC-3, 5-20 μM, 16 h) | CNTF induced STAT3 phosphorylation [4] | CT-1 induced STAT3 phosphorylation [5] | effect on STAT4 phosphorylation (STAT4 phosphorylation)
1 | 35100 | 970 | 40 | O=C(Nc1cc(F)ccc1-n1cccc1)c1ccc(OCCCN2CCCCC2)cc1 [LLM4, N-(5-fluoro-2-(1H-pyrrol-1-yl)phenyl)-4-(3-(piperidin-1-yl)propoxy)benzamide] | almost complete inhibition | inhibited STAT3 phosphorylation in BxPC-3 cells in a dose dependent manner | remain intact | minor influence | 
2 |  |  |  | O=C(Nc1ccccc1-c1ccn[nH]1)c1ccc(OCCN2CCCCC2)cc1 [LLM418, N-(2-(1H-pyrazol-5-yl)phenyl)-4-(2-(piperidin-1-yl)ethoxy)benzamide] |  |  |  |  | little effect
